Experiments:
[1] = molecular target: T1, Human DNA polymerase beta (Homo sapiens, UniProt P06746); experiment: DNA-dependent DNA polymerase activity; type: biochemical; conditions: DNA Pol β
T1 construct: purchased CHIMERx
Protocol: (§1) to the method described previously 1. A 25 nM solution of RSV MTase-CTD protein or RSV L+P complex was incubated with 0.7 µM or 1.8 µM purified synthetic RNA 5’-Gppp […]
(§2) […] (RSV9) for the MTase-CTD or L+P complex, respectively; 2 µM or 0.17 µM S-adenosyl methionine (SAM) for the MTase-CTD or L–P complex, respectively; and 0.1 µM or 0.8 µM 3H-SAM (Perkin Elmer) for the MTase-CTD or L–P complex, respectively; in 50 mM Tris-HCl pH 8.0. Compounds, previously dissolved in DMSO were added at a final concentration of 50 µM or 200 µM. After 3 h incubation at 30°C, reactions were quenched by a 20-fold dilution in ice cold water. Samples were transferred to DEAE filtermats (Perkin Elmer) using a Filtermat Harvester (Packard Instruments). The RNA-retaining mats were washed twice with 10 mM ammonium formate pH 8.0, twice with water and once with ethanol. They were then soaked with scintillation fluid (Perkin Elmer), and 3H-methyl transfer to the RNA substrates was determined using a Wallac MicroBeta TriLux Liquid Scintillation Counter.
(§3) Cellular polymerase assays
(§4) DNA-dependant DNA polymerase (DdDp) activity
(§5) Human DNA polymerases alpha (CHIMERx) at 5 U/ml, beta (CHIMERx) at 0.5 U/ml and gamma (Abcam) at 0.1 mg/ml were incubated with the tested inhibitors at specified concentrations, and a reaction mix composed of 62 µg/ml activated calf thymus DNA, dGTP (2 µM), dATP (2 µM), dCTP (2 µM), [ 3H]dTTP (0.05 µCi/µl), 0.1 mg/ml BSA and a buffer composed of Tris-HCl pH 8 (50 mM), MgCl 2 (5 mM), KCl (60 mM), and DTT (4 mM.) in a total volume of 50 µl. After 2 hours incubation at 30°C, reaction was terminated by addition of 60 µl of a chilled stop solution composed of 20% (w/v) TCA with 0.5 mM ATP. […] Radioactivity was measured via liquid scintillation counting (MicroScint-20, 40µl) on a TriLux apparatus. […]
(§6) The RNA transcription activity of human mitochondrial RNA polymerase (POLRMT) was measured by the incorporation of radioactively labeled nucleotides by POLRMT into acid-insoluble RNA products as described previously 2. […]

[2] = molecular target: T2, Human DNA polymerase alpha (Homo sapiens, UniProt P09884); experiment: DNA-dependent DNA polymerase activity; type: biochemical; conditions: DNA Pol α
T2 construct: purchased CHIMERx
T2 sequence (P09884 1-1462): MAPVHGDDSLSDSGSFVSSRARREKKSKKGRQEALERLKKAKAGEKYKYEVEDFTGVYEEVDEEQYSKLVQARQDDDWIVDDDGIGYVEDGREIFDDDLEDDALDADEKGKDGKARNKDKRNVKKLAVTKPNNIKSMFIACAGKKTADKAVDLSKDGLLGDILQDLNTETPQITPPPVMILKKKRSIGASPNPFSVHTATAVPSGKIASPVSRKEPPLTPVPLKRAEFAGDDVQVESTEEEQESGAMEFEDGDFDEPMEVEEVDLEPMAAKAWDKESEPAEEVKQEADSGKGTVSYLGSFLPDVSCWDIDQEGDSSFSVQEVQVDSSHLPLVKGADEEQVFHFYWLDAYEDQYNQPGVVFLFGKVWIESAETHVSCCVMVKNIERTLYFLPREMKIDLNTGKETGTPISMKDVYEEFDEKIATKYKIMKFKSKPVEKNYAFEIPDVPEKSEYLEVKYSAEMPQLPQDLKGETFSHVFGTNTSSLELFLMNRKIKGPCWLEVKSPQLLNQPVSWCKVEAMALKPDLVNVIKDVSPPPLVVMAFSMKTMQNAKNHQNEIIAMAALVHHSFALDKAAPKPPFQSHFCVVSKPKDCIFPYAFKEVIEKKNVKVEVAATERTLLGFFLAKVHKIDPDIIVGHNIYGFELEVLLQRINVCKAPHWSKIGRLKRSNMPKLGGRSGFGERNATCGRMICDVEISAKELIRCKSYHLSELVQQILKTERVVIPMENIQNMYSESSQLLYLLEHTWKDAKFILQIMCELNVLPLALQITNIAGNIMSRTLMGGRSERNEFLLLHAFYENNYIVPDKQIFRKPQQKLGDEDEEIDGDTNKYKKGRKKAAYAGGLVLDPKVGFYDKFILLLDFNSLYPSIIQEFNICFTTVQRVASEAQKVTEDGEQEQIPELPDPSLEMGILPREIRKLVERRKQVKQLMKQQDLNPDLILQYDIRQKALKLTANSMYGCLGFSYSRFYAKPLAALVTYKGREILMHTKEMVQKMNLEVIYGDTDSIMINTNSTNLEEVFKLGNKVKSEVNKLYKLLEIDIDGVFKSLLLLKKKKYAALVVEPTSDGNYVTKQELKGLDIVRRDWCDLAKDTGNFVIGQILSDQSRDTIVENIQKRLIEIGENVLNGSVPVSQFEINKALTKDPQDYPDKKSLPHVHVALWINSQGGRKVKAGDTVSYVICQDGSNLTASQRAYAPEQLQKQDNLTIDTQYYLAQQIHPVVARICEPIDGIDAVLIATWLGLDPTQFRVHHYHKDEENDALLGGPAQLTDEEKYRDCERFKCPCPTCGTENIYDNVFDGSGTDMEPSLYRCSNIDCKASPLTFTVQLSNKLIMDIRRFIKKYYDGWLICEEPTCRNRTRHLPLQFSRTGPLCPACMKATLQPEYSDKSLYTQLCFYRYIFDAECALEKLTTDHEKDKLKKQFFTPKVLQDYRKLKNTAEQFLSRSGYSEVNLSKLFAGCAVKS
Protocol: as §1, §2, §3, §4, §5, §6

in vitro = conditions: human

Q: Which IC50 [1] does the source give for COc1cc(C(=O)NC[C@](O)(c2cc(C(C)(C)O)c(F)c(-c3ccc(F)cc3)n2)C(F)(F)F)cc2cc(C)nnc12 [JNJ-8003] here?
A: Its IC50 is over 100 µM.

Q: And the IC50 [2]?
A: Its IC50 is over 100 µM.

Q: What about the CC50 at 3 days (in vitro) of the same molecule?
A: Its CC50 at 3 days is 27 µM.
